One may read the IC50 as the concentration at which inhibition is half-maximal. High values mean a need for much substance, low ones inhibition by little substance.

The structures appear in SMILES notation.

Sequence of Bruton's Tyrosine Kinase (BTK), inactivated state (Q06187 whole entry): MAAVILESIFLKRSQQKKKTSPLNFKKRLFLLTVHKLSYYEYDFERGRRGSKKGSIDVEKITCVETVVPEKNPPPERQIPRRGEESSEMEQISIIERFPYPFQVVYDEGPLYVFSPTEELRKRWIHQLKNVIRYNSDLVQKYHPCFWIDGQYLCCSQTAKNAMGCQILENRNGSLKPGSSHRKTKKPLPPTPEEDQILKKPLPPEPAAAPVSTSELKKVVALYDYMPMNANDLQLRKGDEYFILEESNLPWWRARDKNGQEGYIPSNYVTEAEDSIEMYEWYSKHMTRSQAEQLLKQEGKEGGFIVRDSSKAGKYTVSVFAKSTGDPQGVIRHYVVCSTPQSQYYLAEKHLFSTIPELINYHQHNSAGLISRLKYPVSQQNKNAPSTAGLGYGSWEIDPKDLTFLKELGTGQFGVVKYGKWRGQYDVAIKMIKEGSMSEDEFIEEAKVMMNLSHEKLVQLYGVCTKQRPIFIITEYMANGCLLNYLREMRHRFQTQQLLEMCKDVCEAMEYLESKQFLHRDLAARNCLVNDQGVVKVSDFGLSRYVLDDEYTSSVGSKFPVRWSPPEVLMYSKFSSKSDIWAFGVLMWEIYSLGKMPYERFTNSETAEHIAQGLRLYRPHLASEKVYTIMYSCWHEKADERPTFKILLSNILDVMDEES

The test concerns the target Bruton's Tyrosine Kinase (BTK), inactivated state (Homo sapiens (Human), UniProt Q06187). Put plainly: Bruton's Tyrosine Kinase (BTK) Inhibition TR-FRET (Time Resolved FRET) competition assay. The class given is binding. Particulars: competition with Kinase Tracer 178 for BTK-Eu; plates incubated 18-24 h at 14° C. On the procedure:
Bruton's Tyrosine Kinase (BTK) Inhibition TR-FRET (Time Resolved FRET) Assay
This BTK competition assay measures compound potency (IC50) for the inactivated state of Bruton's Tyrosine Kinase using FRET (Förster/Fluoresence Resonance Energy Transfer) technology. The BTK-Eu complex was incubated on ice one hour prior to use at a starting concentration of 50 nM BTK-Bioease™: 10 nM Eu-streptavidin (Perkin-Elmer Catalog #AD0062). The assay buffer consisted of 20 mM HEPES (pH 7.15), 0.1 mM DTT, 10 mM MgCl2, 0.5 mg/ml BSA with 3% Kinase Stabilizer (Fremont Biosolutions, Catalog #STB-K02). After 1 h, the reaction mixture from above was diluted 10 fold in assay buffer to make 5 nM BTK: 1 nM Eu-Streptavidin complex (donor fluorophore). 18 μl of a mixture of 0.11 nM BTK-Eu and 0.11 nM Kinase Tracer 178 (Invitrogen, Catalog #PV5593,) with BTK-Eu alone as no negative control, was then dispensed into 384-well flat bottom plates (Greiner, 784076). Compounds to be tested in assay were prepared as 10× concentrations and serial dilution in half-log increments was performed in DMSO so as to generate 10 point curves. To initiate the FRET reaction, compounds prepared as 10× stock in DMSO was added to the plates and the plates were incubated 18-24 h at 14° C.
After the incubation the plates were read on a BMG Pherastar Fluorescent plate reader (or equivalent) and used to measure the emission energy from the europium donor fluorophore (620 nm emission) and the FRET (665 nm emission). The negative control well values were averaged to obtain the mean minimum. The positive “no inhibitor” control wells were averaged to obtain the mean maximum. Percent of maximal FRET was calculated using following equation: % max FRET=100×[(FSRcmpd−FSRmean min)/(FSRmean max−FSRmean min)]
where FSR=FRET Signal ratio. % Max FRET curves were plotted in Activity Base (Excel) and the IC50 (%), hill slope, z′ and % CV were determined The mean IC50 and standard deviation will be derived from duplicate curves (singlet inhibition curves from two independent dilutions) using Microsoft Excel.
Representative compound data for this assay are listed below in Table II.
`CCC(=O)C(=O)N1CC=C(c2c[nH]c3ncc(NC(=O)OCc4ccccc4)cc23)CC1` [Compound 27, benzyl N-[3-[1-(2-oxobutanoyl)-3,6-dihydro-2H-pyridin-4-yl]-1H-pyrrolo[2,3-b]pyridin-5-yl]carbamate]: the IC50 is 291 nM.

Molecule `O=C(Nc1cnc2[nH]cc(-c3cccc(NC(=O)C(=O)c4ccccc4)c3)c2c1)OCc1ccccc1` [Compound 13, benzyl N-[3-[3-[(2-oxo-2-phenylacetyl)amino]phenyl]-1H-pyrrolo[2,3-b]pyridin-5-yl]carbamate] came in with an IC50 of 323 nM.

`CCC(=O)C(=O)N1CC=C(c2c[nH]c3ncc(NC(=O)OCc4cccc(F)c4)cc23)CC1` [Compound 26, (3-fluorophenyl)methyl N-[3-[1-(2-oxobutanoyl)-3,6-dihydro-2H-pyridin-4-yl]-1H-pyrrolo[2,3-b]pyridin-5-yl]carbamate] showed an IC50 of 384 nM.

For `C=CC(=O)N1CC=C(c2c[nH]c3ncc(NC(=O)OCc4ccccc4)cc23)CC1` [Compound 30, benzyl N-[3-(1-prop-2-enoyl-3,6-dihydro-2H-pyridin-4-yl)-1H-pyrrolo[2,3-b]pyridin-5-yl]carbamate], the IC50 was 1.2 nM.

As for `C=CC(=O)N1CCC(c2c[nH]c3ncc(NC(=O)OCc4ccccc4)cc23)CC1` [Compound 31, benzyl N-[3-(1-prop-2-enoylpiperidin-4-yl)-1H-pyrrolo[2,3-b]pyridin-5-yl]carbamate], the IC50 turned out to be 0.6 nM. Compared with the last molecule, the IC50 is about 2-fold lower.

Take `CC(=O)C(=O)N1CC=C(c2c[nH]c3ncc(NC(=O)OCc4cccc(C#N)c4)cc23)CC1` [Compound 29, (3-cyanophenyl)methyl N-[3-[1-(2-oxopropanoyl)-3,6-dihydro-2H-pyridin-4-yl]-1H-pyrrolo[2,3-b]pyridin-5-yl]carbamate]: the half-inhibitory concentration (IC50) was found to be 700 nM.

Turning to `C=CC(=O)N1CC(O)(c2c[nH]c3ncc(NC(=O)OCc4ccccc4)cc23)C1` [Compound 34, benzyl N-[3-(3-hydroxy-1-prop-2-enoylazetidin-3-yl)-1H-pyrrolo[2,3-b]pyridin-5-yl]carbamate], the IC50 amounted to 3.6 nM. This IC50 lies about 190-fold lower than the previous one.

On to `C=CC(=O)Nc1cccc(-c2c[nH]c3ncc(NC(=O)OC(C)C)cc23)c1` [Compound 3, propan-2-yl N-[3-[3-(prop-2-enoylamino)phenyl]-1H-pyrrolo[2,3-b]pyridin-5-yl]carbamate], for which the IC50 was determined as 0.3 nM. This IC50 is about 12-fold lower than that of the molecule before.

`CC(C)(C)C(=O)C(=O)Nc1cccc(-c2c[nH]c3ncc(NC(=O)OCc4ccccc4)cc23)c1` [Compound 10, benzyl N-[3-[3-[(3,3-dimethyl-2-oxobutanoyl)amino]phenyl]-1H-pyrrolo[2,3-b]pyridin-5-yl]carbamate] came in with an IC50 of 100 nM.

`COCCC(=O)N(C)c1cccc(-c2c[nH]c3ncc(NC(=O)OC(C)C)cc23)c1` [Compound 7, propan-2-yl N-[3-[3-[3-methoxypropanoyl(methyl)amino]phenyl]-1H-pyrrolo[2,3-b]pyridin-5-yl]carbamate] yielded an IC50 of 880 nM.

In the case of `CC(=O)C(=O)Nc1cccc(-c2c[nH]c3ncc(NC(=O)OCc4cccc(F)c4)cc23)c1` [Compound 17, (3-fluorophenyl)methyl N-[3-[3-(2-oxopropanoylamino)phenyl]-1H-pyrrolo[2,3-b]pyridin-5-yl]carbamate], the IC50 came out at 43.7 nM.

`C=C(C(=O)Nc1cccc(-c2c[nH]c3ncc(NC(=O)OCc4ccccc4)cc23)c1)C(F)(F)F` [Compound 9, benzyl N-[3-[3-[2-(trifluoromethyl)prop-2-enoylamino]phenyl]-1H-pyrrolo[2,3-b]pyridin-5-yl]carbamate] had an IC50 of 72 nM.

`CC(=O)C(=O)Nc1cccc(-c2c[nH]c3ncc(NC(=O)OCc4cccc(C#N)c4)cc23)c1` [Compound 20, (3-cyanophenyl)methyl N-[3-[3-(2-oxopropanoylamino)phenyl]-1H-pyrrolo[2,3-b]pyridin-5-yl]carbamate] showed an IC50 of 137 nM.

Molecule `CC(=O)C(=O)Nc1cccc(-c2c[nH]c3ncc(NC(=O)OCc4ccccc4Cl)cc23)c1` [Compound 14, (2-chlorophenyl)methyl N-[3-[3-(2-oxopropanoylamino)phenyl]-1H-pyrrolo[2,3-b]pyridin-5-yl]carbamate] displayed an IC50 of 30 nM.

Consider `CCC(=O)C(=O)Nc1cccc(-c2c[nH]c3ncc(NC(=O)OCc4cccc(C#N)c4)cc23)c1` [Compound 19, (3-cyanophenyl)methyl N-[3-[3-(2-oxobutanoylamino)phenyl]-1H-pyrrolo[2,3-b]pyridin-5-yl]carbamate], for which the IC50 is 114 nM.

The molecule `CC(C)OC(=O)Nc1cnc2[nH]cc(-c3cccc(NC(=O)/C=C/CN(C)C)c3)c2c1` [Compound 5, propan-2-yl N-[3-[3-[[(E)-4-(dimethylamino)but-2-enoyl]amino]phenyl]-1H-pyrrolo[2,3-b]pyridin-5-yl]carbamate] had a half-inhibitory concentration (IC50) of 13 nM. Against the preceding molecule, the IC50 is about 8.8-fold lower.

Consider `CCC(=O)C(=O)Nc1cccc(-c2c[nH]c3ncc(NC(=O)OCc4ccccc4Cl)cc23)c1` [Compound 15, (2-chlorophenyl)methyl N-[3-[3-(2-oxobutanoylamino)phenyl]-1H-pyrrolo[2,3-b]pyridin-5-yl]carbamate], for which the concentration for half-maximal inhibition (IC50) was found to be 60 nM.

In the case of `C=CC(=O)N(C)c1cccc(-c2c[nH]c3ncc(NC(=O)OC(C)C)cc23)c1` [Compound 6, propan-2-yl N-[3-[3-[methyl(prop-2-enoyl)amino]phenyl]-1H-pyrrolo[2,3-b]pyridin-5-yl]carbamate], the IC50 stood at 24 nM.

Take `CN(C)C/C=C/C(=O)Nc1cccc(-c2c[nH]c3ncc(NC(=O)OCc4ccccc4)cc23)c1` [Compound 1, benzyl N-[3-[3-[[(E)-4-(dimethylamino)but-2-enoyl]amino]phenyl]-1H-pyrrolo[2,3-b]pyridin-5-yl]carbamate]: the IC50 worked out at 7 nM. This IC50 lies about 3.4-fold lower than the previous one.

`C=CC(=O)Nc1cccc(-c2c[nH]c3ncc(NC(=O)OCc4ccccc4)cc23)c1` [Compound 2, benzyl N-[3-[3-(prop-2-enoylamino)phenyl]-1H-pyrrolo[2,3-b]pyridin-5-yl]carbamate] yielded an IC50 of 0.3 nM. Compared with the last molecule, the IC50 is about 23-fold lower.

The molecule `CCC(=O)C(=O)Nc1cccc(-c2c[nH]c3ncc(NC(=O)OC(C)C)cc23)c1` [Compound 8, propan-2-yl N-[3-[3-(2-oxobutanoylamino)phenyl]-1H-pyrrolo[2,3-b]pyridin-5-yl]carbamate] had an IC50 of 49 nM.

The values are drawn from patent US9617260B2, “Inhibitors of bruton's tyrosine kinase” (Hoffmann-La Roche Inc., priority 2013, dated 2017).
